Reference: patent US11395490B2, “Herbicidal composition” (SYNGENTA CROP PROTECTION, LLC, priority 2005, dated 2022)

Assays:
Type in all cases: in vivo
Conditions in all cases: 21 days after treatment
[1] = test system: Euphorbia heterophylla (EPHHL); assay: Post-emergence test, Euphorbia heterophylla
Description: (§1) The herbicidal action to be expected, We, for a given combination of two herbicides can be calculated as follows (see COLBY, S. R. “Calculating synergistic and antagonistic response of herbicide combinations”. Weeds 15, pages 20-22; 1967): We=X+[Y·(100−X)/100] wherein: X=% herbicidal action in the case of treatment with active ingredient (A) using an application rate of p kg per hectare, in comparison with untreated control (=0%). Y=% herbicidal action in the case of treatment with active ingredient (B) using an application rate of q kg per hectare, in comparison with untreated control. We=expected herbicidal action (% herbicidal action in comparison with untreated control) after treatment with active ingredient (A) and active ingredient (B) at a rate of application of p+q kg of active ingredient per hectare. If the action actually observed is greater than the expected value We, there is a synergistic effect. Trial Description, Pre-Emergence Test: Monocotyledonous and dicotyledonous test plants are sown in standard soil in plastics pots. The plants tested were: Maize (ZEAMX), Ipomea purpurea (PHBPU), Euphorbia heterophylla (EPHHL), Panicum millenacearum (PANMI). Immediately after sowing, the test compounds in aqueous suspension are applied by spraying (200 litres of water/ha). (A) was formulated as a SC50, and (B1), (B2) and (B3) were formulated as WP25; 1% adjuvant crop oil concentrate (Agridex) (v/v) was added to all treatments. The compounds were applied alone and in combination as tank mixtures. The rates of application depend on the optimum concentrations determined under field conditions and greenhouse conditions. The test plants are then cultivated in a greenhouse under optimum conditions. Evaluation of the tests is made after 21 days (% action, 100%=plants have died, 0%=no phytotoxic action).
(§2) Trial Description Post-Emergence Test: The test plants are raised in plastics pots under greenhouse conditions as far as the 2- to 3-leaf stage. A standard soil is used as the cultivation substrate. The plants tested were: Maize (ZEAMX), Ipomea purpurea (PHBPU), Sorghum vulgare (SORVU), Euphorbia heterophylla (EPHHL), Panicum millenacearum (PANMI). At the 2- to 3-leaf stage, the herbicides are applied individually and as mixtures to the test plants. The test compounds are applied in the form of an aqueous suspension in 200 litres of water/ha. (A) was formulated as a SC50, and (B1), (B2) and (B3) were formulated as WP25; 1% adjuvant crop oil concentrate (Agridex) (v/v) was added to all treatments. The compounds were applied alone and in combination as tank mixtures. The rates of application depend on the optimum concentrations determined under field conditions and greenhouse conditions. Evaluation of the tests is made after 21 days (% action, 100%=plants have died, 0%=no phytotoxic action).

[2] = test system: Panicum millenacearum (PANMI); assay: Pre-emergence test, Panicum millenacearum
Description: as §1

[3] = test system: Panicum millenacearum (PANMI); assay: Post-emergence test, Panicum millenacearum
Description: as §1, §2

Ipomea purpurea (PHBPU) [4] = assay: Pre-emergence test, Ipomea purpurea
Description: as §1

Maize (ZEAMX) [5] = assay: Post-emergence test, Maize
Description: as §1, §2

Maize (ZEAMX) [6] = assay: Pre-emergence test, Maize
Description: as §1

Ipomea purpurea (PHBPU) [7] = assay: Post-emergence test, Ipomea purpurea
Description: as §1, §2

[8] = test system: Euphorbia heterophylla (EPHHL); assay: Pre-emergence test, Euphorbia heterophylla
Description: as §1

Sorghum vulgare (SORVU) = assay: Post-emergence test, Sorghum vulgare
Description: as §1, §2

Cn1nc(C(F)(F)F)c(CS(=O)(=O)C2=NOC(C)(C)C2)c1OC(F)F [(A), 3-[[[5-(difluoromethoxy)-1-methyl-3-(trifluoromethyl)-1H-pyrazol-4-yl]methyl]-sulfonyl]-4,5-dihydro-5,5-dimethyl-isoxazole]
Observed plant damage EPHHL ([1]; rate 12.5 g/ha): 0% | Observed plant damage EPHHL ([1]; rate 25 g/ha): 0% | Observed plant damage EPHHL ([1]; rate 50 g/ha): 15% | Observed plant damage EPHHL ([1]; rate 100 g/ha): 35% | Observed plant damage EPHHL ([1]; rate 200 g/ha): 40% | Observed plant damage PANMI ([2]; rate 12.5 g/ha): 0% | Observed plant damage PANMI ([2]; rate 25 g/ha): 0% | Observed plant damage PANMI ([2]; rate 50 g/ha): 70% | Observed plant damage PANMI ([2]; rate 100 g/ha): 100% | Observed plant damage PANMI ([2]; rate 200 g/ha): 100% | Observed plant damage PANMI ([3]; rate 12.5 g/ha): 0% | Observed plant damage PANMI ([3]; rate 25 g/ha): 35% | Observed plant damage PANMI ([3]; rate 50 g/ha): 65% | Observed plant damage PANMI ([3]; rate 100 g/ha): 65% | Observed plant damage PANMI ([3]; rate 200 g/ha): 75% | Observed plant damage PHBPU (Ipomea purpurea (PHBPU) [4]; rate 12.5 g/ha): 0% | Observed plant damage PHBPU (Ipomea purpurea (PHBPU) [4]; rate 25 g/ha): 0% | Observed plant damage PHBPU (Ipomea purpurea (PHBPU) [4]; rate 50 g/ha): 0% | Observed plant damage PHBPU (Ipomea purpurea (PHBPU) [4]; rate 100 g/ha): 75% | Observed plant damage PHBPU (Ipomea purpurea (PHBPU) [4]; rate 200 g/ha): 95% | Observed plant damage ZEAMX (Maize (ZEAMX) [5]; rate 12.5 g/ha): 0% | Observed plant damage ZEAMX (Maize (ZEAMX) [5]; rate 25 g/ha): 0% | Observed plant damage ZEAMX (Maize (ZEAMX) [5]; rate 50 g/ha): 0% | Observed plant damage ZEAMX (Maize (ZEAMX) [5]; rate 100 g/ha): 0% | Observed plant damage ZEAMX (Maize (ZEAMX) [5]; rate 200 g/ha): 0% | Observed plant damage ZEAMX (Maize (ZEAMX) [6]; rate 12.5 g/ha): 0% | Observed plant damage ZEAMX (Maize (ZEAMX) [6]; rate 25 g/ha): 0% | Observed plant damage ZEAMX (Maize (ZEAMX) [6]; rate 50 g/ha): 0% | Observed plant damage ZEAMX (Maize (ZEAMX) [6]; rate 100 g/ha): 0% | Observed plant damage ZEAMX (Maize (ZEAMX) [6]; rate 200 g/ha): 0% | Observed plant damage PHBPU (Ipomea purpurea (PHBPU) [7]; rate 12.5 g/ha): 0% | Observed plant damage PHBPU (Ipomea purpurea (PHBPU) [7]; rate 25 g/ha): 20% | Observed plant damage PHBPU (Ipomea purpurea (PHBPU) [7]; rate 50 g/ha): 20% | Observed plant damage PHBPU (Ipomea purpurea (PHBPU) [7]; rate 100 g/ha): 75% | Observed plant damage PHBPU (Ipomea purpurea (PHBPU) [7]; rate 200 g/ha): 85% | Observed plant damage EPHHL ([8]; rate 12.5 g/ha): 0% | Observed plant damage EPHHL ([8]; rate 25 g/ha): 0% | Observed plant damage EPHHL ([8]; rate 50 g/ha): 15% | Observed plant damage EPHHL ([8]; rate 100 g/ha): 40% | Observed plant damage EPHHL ([8]; rate 200 g/ha): 75% | Observed plant damage SORVU (Sorghum vulgare (SORVU); rate 12.5 g/ha): 0% | Observed plant damage SORVU (Sorghum vulgare (SORVU); rate 25 g/ha): 0% | Observed plant damage SORVU (Sorghum vulgare (SORVU); rate 50 g/ha): 0% | Observed plant damage SORVU (Sorghum vulgare (SORVU); rate 100 g/ha): 0% | Observed plant damage SORVU (Sorghum vulgare (SORVU); rate 200 g/ha): 0%

CS(=O)(=O)c1ccc(C(=O)C2C(=O)CCCC2=O)c(Cl)c1COCC(F)(F)F [(B2), tembotrione]
Observed plant damage EPHHL ([1]; rate 18.75 g/ha): 65% | Observed plant damage EPHHL ([1]; rate 37.5 g/ha): 75% | Observed plant damage EPHHL ([1]; rate 75 g/ha): 80% | Observed plant damage EPHHL ([1]; rate 150 g/ha): 98% | Observed plant damage EPHHL ([1]; rate 300 g/ha): 100% | Observed plant damage PANMI ([2]; rate 18.75 g/ha): 0% | Observed plant damage PANMI ([2]; rate 37.5 g/ha): 0% | Observed plant damage PANMI ([2]; rate 75 g/ha): 0% | Observed plant damage PANMI ([2]; rate 150 g/ha): 40% | Observed plant damage PANMI ([2]; rate 300 g/ha): 98% | Observed plant damage PANMI ([3]; rate 18.75 g/ha): 0% | Observed plant damage PANMI ([3]; rate 37.5 g/ha): 20% | Observed plant damage PANMI ([3]; rate 75 g/ha): 20% | Observed plant damage PANMI ([3]; rate 150 g/ha): 65% | Observed plant damage PANMI ([3]; rate 300 g/ha): 50% | Observed plant damage PHBPU (Ipomea purpurea (PHBPU) [4]; rate 18.75 g/ha): 0% | Observed plant damage PHBPU (Ipomea purpurea (PHBPU) [4]; rate 37.5 g/ha): 0% | Observed plant damage PHBPU (Ipomea purpurea (PHBPU) [4]; rate 75 g/ha): 0% | Observed plant damage PHBPU (Ipomea purpurea (PHBPU) [4]; rate 150 g/ha): 20% | Observed plant damage PHBPU (Ipomea purpurea (PHBPU) [4]; rate 300 g/ha): 75% | Observed plant damage ZEAMX (Maize (ZEAMX) [5]; rate 18.75 g/ha): 0% | Observed plant damage ZEAMX (Maize (ZEAMX) [5]; rate 37.5 g/ha): 0% | Observed plant damage ZEAMX (Maize (ZEAMX) [5]; rate 75 g/ha): 0% | Observed plant damage ZEAMX (Maize (ZEAMX) [5]; rate 150 g/ha): 0% | Observed plant damage ZEAMX (Maize (ZEAMX) [5]; rate 300 g/ha): 0% | Observed plant damage ZEAMX (Maize (ZEAMX) [6]; rate 18.75 g/ha): 0% | Observed plant damage ZEAMX (Maize (ZEAMX) [6]; rate 37.5 g/ha): 0% | Observed plant damage ZEAMX (Maize (ZEAMX) [6]; rate 75 g/ha): 0% | Observed plant damage ZEAMX (Maize (ZEAMX) [6]; rate 150 g/ha): 0% | Observed plant damage ZEAMX (Maize (ZEAMX) [6]; rate 300 g/ha): 0% | Observed plant damage PHBPU (Ipomea purpurea (PHBPU) [7]; rate 18.75 g/ha): 0% | Observed plant damage PHBPU (Ipomea purpurea (PHBPU) [7]; rate 37.5 g/ha): 25% | Observed plant damage PHBPU (Ipomea purpurea (PHBPU) [7]; rate 75 g/ha): 55% | Observed plant damage PHBPU (Ipomea purpurea (PHBPU) [7]; rate 150 g/ha): 60% | Observed plant damage PHBPU (Ipomea purpurea (PHBPU) [7]; rate 300 g/ha): 60% | Observed plant damage EPHHL ([8]; rate 18.75 g/ha): 0% | Observed plant damage EPHHL ([8]; rate 37.5 g/ha): 0% | Observed plant damage EPHHL ([8]; rate 75 g/ha): 0% | Observed plant damage EPHHL ([8]; rate 150 g/ha): 100% | Observed plant damage EPHHL ([8]; rate 300 g/ha): 100% | Observed plant damage SORVU (Sorghum vulgare (SORVU); rate 18.75 g/ha): 0% | Observed plant damage SORVU (Sorghum vulgare (SORVU); rate 37.5 g/ha): 0% | Observed plant damage SORVU (Sorghum vulgare (SORVU); rate 75 g/ha): 0% | Observed plant damage SORVU (Sorghum vulgare (SORVU); rate 150 g/ha): 0% | Observed plant damage SORVU (Sorghum vulgare (SORVU); rate 300 g/ha): 0%
